# In patent EP3375430A1, “FRAGRANCE COMPOSITIONS” (Takasago International Corporation, priority 2017, dated 2018):
# Key:
# [1] = Headspace concentration of fragrance ingredients over blotter (thermal desorption GC-MS); format: physicochemical; details: fragrance TAK;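 for headspace concentration in composition C1 compared to control EdT1: C1 is an invention composition and EdT1 a conventional EdT of fragrance TAK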
# Procedure, shortened: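 Fragrance (100µL) applied to a 10 cm perfumers' blotter held on a 32°C hot plate, equilibrated 5 min; headspace drawn through Tenax TA tubes at 17mL/min until 280mL collected, repeated at later sampling times. Tubes thermally desorbed splitless onto HP-5MS column, GC-MS detection, mass range 35 to 350.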
# [2] = Amount of fragrance ingredients retained on paper blotter after evaporation (ethanol extraction, GC-MS); format: physicochemical
# Procedure, shortened: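 100 µL of fragrance formulation applied to paper blotters kept at 32°C open to air; at each time three blotters extracted 1 h in ethanol with methyl decanoate internal standard and analysed by GC-MS (HP-5MS, 50–280°C). Amounts averaged over triplicates and expressed as percent of time-zero level.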
smiles,measurement,setting,value
C=CC(C)(O)CCC=C(C)C (stereo not drawn) [Linalool],headspace concentration in composition C1 compared to control EdT1,"[1]; T0 + 4h, Figure 3",significantly greater
same,headspace concentration in composition C14 compared to control EdT1,"[1]; T0+4h and T0+8h, Figures 17 and 18",significantly greater
same,headspace concentration in composition C15 compared to control EdT1,"[1]; T0+4h and T0+8h, Figures 20 and 21, difference significant for linalool, linalyl acetate and Verdox™",greater
same,headspace concentration in composition C1 compared to control EdT1,"[1]; T0 + 8h, Figure 4",much greater
same,headspace concentration in composition C1 compared to control EdT1,"[1]; after 1 hour, Figure 2",greater
same,amount of fragrance ingredient retained on blotter (percentage of the initial amount),"[2]; Table 3, fragrance TAK in C1, 15 min, 32°C",80%
same,amount of fragrance ingredient retained on blotter (percentage of the initial amount),"[2]; Table 3, fragrance TAK in C1, 60 min, 32°C",61%
same,amount of fragrance ingredient retained on blotter (percentage of the initial amount),"[2]; Table 3, fragrance TAK in C1, 120 min, 32°C",35%
same,amount of fragrance ingredient retained on blotter (percentage of the initial amount),"[2]; Table 3, fragrance TAK in C1, 240 min, 32°C",13%
same,amount of fragrance ingredient retained on blotter (percentage of the initial amount),"[2]; Table 3, fragrance TAK in C1, 480 min, 32°C",3%
same,amount of fragrance ingredient retained on blotter (percentage of the initial amount),"[2]; Table 3, fragrance TAK in EdT1, 15 min, 32°C",57%
same,amount of fragrance ingredient retained on blotter (percentage of the initial amount),"[2]; Table 3, fragrance TAK in EdT1, 60 min, 32°C",9%
same,amount of fragrance ingredient retained on blotter (percentage of the initial amount),"[2]; Table 3, fragrance TAK in EdT1, 120 min, 32°C",1%
same,amount of fragrance ingredient retained on blotter (percentage of the initial amount),"[2]; Table 3, fragrance TAK in EdT1, 240 min, 32°C",1%
same,amount of fragrance ingredient retained on blotter (percentage of the initial amount),"[2]; Table 3, fragrance TAK in EdT1, 480 min, 32°C",<1%
same,amount of fragrance ingredient retained on blotter (percentage of the initial amount),"[2]; Table 3, fragrance TAK in EdT1 or C1, T0, set at 100% (normalisation)",100%
same,amount of fragrance ingredient retained on blotter (percentage of the initial amount),"[2]; Table 4, fragrance TAK in C2, 15 min, 32°C",92%
same,amount of fragrance ingredient retained on blotter (percentage of the initial amount),"[2]; Table 4, fragrance TAK in C2, 480 min, 32°C",4%
same,amount of fragrance ingredient retained on blotter (percentage of the initial amount),"[2]; Table 4, fragrance TAK in EdT1, 15 min, 32°C",58%
same,amount of fragrance ingredient retained on blotter (percentage of the initial amount),"[2]; Table 4, fragrance TAK in EdT1, 480 min, 32°C",3%
same,amount of fragrance ingredient retained on blotter (percentage of the initial amount),"[2]; Table 4, fragrance TAK in EdT1 or C2, T0, set at 100% (normalisation)",100%
same,amount of fragrance ingredient retained on blotter (percentage of the initial amount),"[2]; Table 5, fragrance TAK in C3, 15 min, 32°C",85%
same,amount of fragrance ingredient retained on blotter (percentage of the initial amount),"[2]; Table 5, fragrance TAK in C3, 60 min, 32°C",61%
same,amount of fragrance ingredient retained on blotter (percentage of the initial amount),"[2]; Table 5, fragrance TAK in C3, 120 min, 32°C",37%
same,amount of fragrance ingredient retained on blotter (percentage of the initial amount),"[2]; Table 5, fragrance TAK in C3, 240 min, 32°C",18%
same,amount of fragrance ingredient retained on blotter (percentage of the initial amount),"[2]; Table 5, fragrance TAK in C3, 480 min, 32°C",3%
same,amount of fragrance ingredient retained on blotter (percentage of the initial amount),"[2]; Table 5, fragrance TAK in C3, 1440 min, 32°C",1%
same,amount of fragrance ingredient retained on blotter (percentage of the initial amount),"[2]; Table 5, fragrance TAK in EdT1, 15 min, 32°C",57%
same,amount of fragrance ingredient retained on blotter (percentage of the initial amount),"[2]; Table 5, fragrance TAK in EdT1, 60 min, 32°C",9%
same,amount of fragrance ingredient retained on blotter (percentage of the initial amount),"[2]; Table 5, fragrance TAK in EdT1, 120 min, 32°C",1%
same,amount of fragrance ingredient retained on blotter (percentage of the initial amount),"[2]; Table 5, fragrance TAK in EdT1, 240 min, 32°C",<1%
same,amount of fragrance ingredient retained on blotter (percentage of the initial amount),"[2]; Table 5, fragrance TAK in EdT1, 480 min, 32°C",<1%
same,amount of fragrance ingredient retained on blotter (percentage of the initial amount),"[2]; Table 5, fragrance TAK in EdT1, 1440 min, 32°C",<1%
same,amount of fragrance ingredient retained on blotter (percentage of the initial amount),"[2]; Table 5, fragrance TAK in EdT1 or C3, T0, set at 100% (normalisation)",100%
same,amount of fragrance ingredient retained on blotter (percentage of the initial amount),"[2]; Table 6, fragrance TAK in C4, 15 min, 32°C",81%
same,amount of fragrance ingredient retained on blotter (percentage of the initial amount),"[2]; Table 6, fragrance TAK in C4, 60 min, 32°C",61%
same,amount of fragrance ingredient retained on blotter (percentage of the initial amount),"[2]; Table 6, fragrance TAK in C4, 120 min, 32°C",28%
same,amount of fragrance ingredient retained on blotter (percentage of the initial amount),"[2]; Table 6, fragrance TAK in C4, 240 min, 32°C",13%
same,amount of fragrance ingredient retained on blotter (percentage of the initial amount),"[2]; Table 6, fragrance TAK in C4, 480 min, 32°C",8%
same,amount of fragrance ingredient retained on blotter (percentage of the initial amount),"[2]; Table 6, fragrance TAK in EdT1, 15 min, 32°C",57%
same,amount of fragrance ingredient retained on blotter (percentage of the initial amount),"[2]; Table 6, fragrance TAK in EdT1, 60 min, 32°C",9%
same,amount of fragrance ingredient retained on blotter (percentage of the initial amount),"[2]; Table 6, fragrance TAK in EdT1, 120 min, 32°C",1%
same,amount of fragrance ingredient retained on blotter (percentage of the initial amount),"[2]; Table 6, fragrance TAK in EdT1, 240 min, 32°C",<1%
same,amount of fragrance ingredient retained on blotter (percentage of the initial amount),"[2]; Table 6, fragrance TAK in EdT1, 480 min, 32°C",<1%
same,amount of fragrance ingredient retained on blotter (percentage of the initial amount),"[2]; Table 6, fragrance TAK in EdT1 or C4, T0, set at 100% (normalisation)",100%
